Data taken from ChEMBL document CHEMBL3400089, “Studies on antimicrobial effects of four ligands and their transition metal complexes with 8-mercaptoquinoline and pyridine terminal groups” (2015).
In brackets after ≈: the same amount, converted by molar mass. Where a name gives a salt, the structure may show the parent alone.

Assays:
Assay type in all cases: functional
[1] = tested on: Sporosarcina ureae; assay: Antimicrobial activity against Sarcina ureae after 24 hrs by two fold serial microdilution method
[2] = tested on: Pseudomonas aeruginosa; assay: Antimicrobial activity against Pseudomonas aeruginosa after 24 hrs by two fold serial microdilution method
[3] = tested on: Escherichia coli; assay: Antimicrobial activity against Escherichia coli ATCC 25922 after 24 hrs by two fold serial microdilution method; conditions: ATCC 25922, 24 h
[4] = tested on: Staphylococcus aureus; assay: Antimicrobial activity against Staphylococcus aureus ATCC 27154 after 24 hrs by two fold serial microdilution method; conditions: ATCC 27154, 24 h
[5] = tested on: Aspergillus niger; assay: Antimicrobial activity against Aspergillus niger after 48 hrs by two fold serial microdilution method
[6] = tested on: Saccharomyces cerevisiae; assay: Antimicrobial activity against Saccharomyces cerevisiae after 48 hrs by two fold serial microdilution method
[7] = tested on: Fusarium oxysporum f. sp. cubense; assay: Antimicrobial activity against Fusarium oxysporum f. sp. cubense after 48 hrs by two fold serial microdilution method

Row | Molecule | MIC [1] [µM] | MIC [2] [µM] | MIC [3] [µM] | MIC [4] [µM] | MIC [5] [µM] | MIC [6] [µM] | MIC [7] [µM]
1 | CN[C@@H]1[C@H](O[C@H]2[C@H](O[C@H]3[C@H](O)[C@@H](O)[C@H](N=C(N)N)[C@@H](O)[C@@H]3N=C(N)N)O[C@@H](C)[C@]2(O)C=O)O[C@@H](CO)[C@H](O)[C@H]1O [STREPTOMYCIN SULFATE] | 2.14 | 1.07 | 2.14 | 1.07 | – | – | –
2 | c1cc(CSc2cccc3cccnc23)nc(CSc2cccc3cccnc23)c1 | > 117 | > 117 | 7.35 (≈ 3.13 µg/mL) | > 117 | – | – | –
3 | c1cncc(CSc2cccc3cccnc23)c1 | > 198 | > 198 | 99.1 (≈ 25 µg/mL) | > 198 | > 495 | > 495 | > 495
4 | c1ccc(CSc2cccc3cccnc23)nc1 | > 198 | > 198 | 49.5 (≈ 12.5 µg/mL) | > 198 | – | – | –
5 | c1cnc2c(SCc3ccncc3)cccc2c1 | > 198 | > 198 | 24.8 (≈ 6.26 µg/mL) | > 198 | – | – | –
6 | CC1(C)S[C@@H]2[C@H](NC(=O)[C@H](N)c3ccccc3)C(=O)N2[C@H]1C(=O)O [AMPICILLIN] | 17.4 (≈ 6.08 µg/mL) | 17.4 (≈ 6.08 µg/mL) | 34.7 (≈ 12.1 µg/mL) | 69.4 (≈ 24.2 µg/mL) | – | – | –
7 | NYSTATIN | – | – | – | – | 14.1 | 14.1 | 28.2
